# Laboratory results reported in patent US6197760A (priority 2000, dated 2001).
# Assays:
# [1] = metabolite of CPA; cited from earlier work
# [2] = system: mixedfunction oxidase activities (cytochrome P-450, aryl hydrocarbon hydroxylase, aminopyrinedemethylase); glutathione; conditions: cited from earlier work
# [3] = system: M5076 sarcoma; conditions: historical; cited from earlier work
# [4] = system: mammary tumor 16/C; design: species or system murine; conditions: mouse, in vivo
# [5] = system: L1210/0 leukemia; conditions: L1210/0, i.p. day 2 only at MTD (CPA 200, Ifos 431, IPM 100 mg/kg)
# [6] = system: MX-1 mammary tumor xenograft; type: in vivo, human; conditions: experiment analogous to MCF-7
# [7] = in vivo; conditions: mouse, ip
# [8] = system: Lewis lung carcinoma; conditions: mouse, in vivo
# [9] = clinical; cited from earlier work
# [10] = system: P388 leukemia; conditions: historical; cited from earlier work
# [11] = system: MCF-7 mammary tumor xenograft; design: species or system human; conditions: in vivo, sc
# [12] = system: LOX-IMVI melanoma; assay: Evaluation against i.p. implanted LOX-IMVI melanoma (Table 6); type: in vivo, human
# Procedure: BM-IPM was evaluated vs. human LOX-IMVI melanoma and produced a 52% increase in life span (ILS) and 20% survivors, while IPM yielded an identical ILS with no survivors.
# Evaluation of BM-IPM Against I.P. Implanted Human
# Treatment: IP: Q1DX1 (1) Therapeutic Response
# [13] = system: L1210/CPA leukemia; type: in vivo, male CDF1 mice; conditions: L1210/CPA, i.p. day 2 only at MTD (CPA 200, Ifos 431, IPM 100 mg/kg)
# [14] = in vivo; conditions: mouse, ip; remark: listed apart in the source
structure (smiles),measurement,setting,value
C=CC=O [acrolein],teratogenicity,[1],teratogenic
same,liver toxicity,[2],glutathione depletion and destruction of mixedfunction oxidase activities
"O=P1(N(CCCl)CCCl)NCCCO1 (centres unmarked) [CPA, cyclophosphamide]","comparative activity vs. M5076 sarcoma, historically",[3],comparably active to CM-IPM
same,tumor response / comparative activity vs. 16/C,[4],none of which caused tumor regression
same,% ILS (dying mice only),[5],+107%
same,Net log10 reduction in tumor burden after therapy,[5],7 log10
same,Day 60 survivors/total,[5]; tumor burden at start 8.5 × 10^8 cells,0/10
same,activity vs. MX-1,[6],high activity
same,MTD,[7],200 mg/kg
same,comparative activity against Lewis lung carcinoma,[8],equivalent activity at equal host toxicity
same,cure rate,[8],50-70%
same,"% ILS (increase in life span, excluding survivors)",[8]; ip,68
same,Log kill total (Log10 cell kill),[8]; ip,> 6.8
same,Tumour-free survivors,[8]; ip,5/10
same,toxicity in patients,[9],hemorrhagic cystitis
same,"comparative activity vs. P388 leukemia, historically",[10],comparably active to CM-IPM
same,Days delay (T-C),[11],6.7
same,55-Day Surv./Total,"[12]; IP, Q1DX1 (1), 40 mg/kg/dose",0/5
same,% ILS,"[12]; IP, Q1DX1 (1), 40 mg/kg/dose",+121%
same,Median Day of Death,"[12]; IP, Q1DX1 (1), 40 mg/kg/dose",42.0 days
same,increase in life span (ILS),[12]; Table 6,121%
same,survivors,[12]; Table 6,no survivors
same,% ILS (dying mice only),[13],+57%
same,Net log10 reduction in tumor burden after therapy,[13],4 log10
same,Day 60 survivors/total,[13]; tumor burden at start 6.0 × 10^7 cells,0/10
same,MTD,[14],200 mg/kg
